For four compounds, MIC and ED50 results are on record in patent US4656166A, “Antibiotic compounds derived from cephalosporins, process for their production and pharmaceutical compositions” (Sanofi, priority 1983, dated 1987).

≈ marks a conversion by molar mass, not a printed value. Structures can show the parent of a compound that is named as a salt. Where two headings read alike, the source gives them in different places.

One may read the MIC as the least concentration at which growth counts as inhibited.

Assay [1] concerns Enterobacter RO 154. In words: MIC, in vitro dilution method, Enterobacter RO 154 (Table III). The assay is classed as cell-based. The following applies: RO154; Enterobacter RO 154; dilution method; read-out: MIC. In a few lines: (§1)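 Compounds are serially diluted in vitro and tested for bacteriostatic effect on each Gram-negative strain; the lowest inhibiting concentration is recorded as MIC (μg/ml).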

Assay [2] deals with Klebsiella RO 30. In words: MIC, in vitro dilution method, Klebsiella RO 30 (Table III). Type of assay: cell-based. To be noted: RO30; Klebsiella RO 30; dilution method; read-out: MIC. In a few lines:
as §1

Assay [3] relates to Proteus vulgaris RL 99 bis. Put plainly: MIC, in vitro dilution method, Proteus vulgaris RL 99 bis (Table III). To be noted: RL99BIS; Proteus vulgaris RL 99 bis; dilution method; read-out: MIC. Type of assay: cell-based. A digest of the protocol: as §1
Assay [4] has as its system Escherichia coli 255. Put plainly: MIC on beta-lactamase producing strain Escherichia coli 255 (Table IV). The assay is classed as cell-based. The following applies: Escherichia coli 255, producing beta-lactamases; read-out: MIC. The procedure:
(§2) To evaluate the stability of these products towards beta-lactamases, their MIC was determined on isogenic strains producing and not producing beta-lactamases.
(§3) The results are expressed in μg/ml in Table IV.

Assay [5] relates to Klebsiella RO 30. In words: septicemic model of the mouse, Klebsiella RO 30 (Table V). The assay is classed as in vivo. To be noted: RO30, sc, 96 h, mouse septicemia, sub-cutaneous, 4 days observation, read-out: DE50 (the source's name).
In assay [6] the test system is Citrobacter RL 49. In words: MIC, in vitro dilution method, Citrobacter RL 49 (Table III). To be noted: RL49; Citrobacter RL 49; dilution method; read-out: MIC. The assay is classed as cell-based. A digest of the protocol: as §1
For assay [7], the system named is Proteus vulgaris GN 76/C.1. Put plainly: MIC on beta-lactamase producing strain Proteus vulgaris GN 76/C.1 (Table IV). The assay is classed as cell-based. The following applies: GN76; Proteus vulgaris GN 76/C.1, producing beta-lactamases; read-out: MIC. The protocol:
as §2, §3

Assay [8] concerns Escherichia coli 255/L.7. Put plainly: MIC on strain not producing beta-lactamase, Escherichia coli 255/L.7 (Table IV). The assay is classed as cell-based. The procedure: as §2, §3
Assay [9] relates to Pseudomonas RL 112. In words: MIC, in vitro dilution method, Pseudomonas RL 112 (Table III). To be noted: RL112. The assay is classed as cell-based. In a few lines:
as §1

Assay [10] has as its system Serrtia liquefaciens SL/326 A. Put plainly: MIC on beta-lactamase producing strain Serratia liquefaciens SL/326 A (Table IV). Type of assay: cell-based. The procedure:
as §2, §3

The subject of assay [11] is Escherichia coli SOL 90. Put plainly: septicemic model of the mouse, Escherichia coli SOL 90 (Table V). The following applies: SOL90, sc, 96 h, mouse septicemia, sub-cutaneous, 1 to 5 hours after inoculation, 4 days observation, read-out: DE50 (the source's name). The assay is classed as in vivo. The protocol:
The therapeutic effectiveness of the products was determined on the septicemic model of the mouse. the septicemia was initiated by the intraperitoneal innoculation of 0.5 ml of a suitable dilution of a suspension of the Escherichia coli SOL 90 strain. The products were administered in solution in a phosphate buffer pH 7.0 in a volume of 0.2 ml sub-cutaneously to batches of 10 mice, 1 to 5 hours after innoculation of the microorganism. After 4 days of observation in the course of which the mortality was noted, the 50% effective doses (DE 50) were calculated by the Muench and Reed method.

The subject of assay [12] is Serrtia liquefaciens SL 1326 S. In words: MIC on strain not producing beta-lactamase, Serratia liquefaciens SL 1326 S (Table IV). The following applies: SL1326S, not producing beta-lactamases. The assay is classed as cell-based. The procedure: as §2, §3
Assay [13] concerns Escherichia coli SOL 90. In words: MIC, in vitro dilution method, Escherichia coli SOL 90 (Table III). The assay is classed as cell-based. To be noted: SOL90; Escherichia coli SOL 90; dilution method; read-out: MIC. In a few lines: as §1
Assay [14] relates to Serratia RL 72. Put plainly: MIC, in vitro dilution method, Serratia RL 72 (Table III). To be noted: RL72. The assay is classed as cell-based. In a few lines: as §1
Assay [15] has as its system Proteus vulgaris GN 76/C.1/3. In words: MIC on strain not producing beta-lactamase, Proteus vulgaris GN 76/C.1/3 (Table IV). Type of assay: cell-based. To be noted: GN76, not producing beta-lactamases. The protocol:
as §2, §3

The mark [16] stands for this setting: Escherichia coli 255/L.7 *, not producing beta-lactamases, read-out: MIC.

`CC(C)(O/N=C(\C(=O)NC1C(=O)N2C(C(=O)O)=C(COC(=O)CCN)C[S+]([O-])C12)c1csc(N)n1)C(=O)O` (stereo not shown) [41 730]: the MIC in assay [1] was 0.25 µg/mL (≈ 0.437 µM); in assay [2], 0.25 µg/mL (≈ 0.437 µM); in assay [3], at most 0.12 µg/mL; in assay [4], 0.25 µg/mL (≈ 0.437 µM); in assay [6], 0.25 µg/mL (≈ 0.437 µM); in [7], 0.25 µg/mL (≈ 0.437 µM). In addition, the MIC in [8] (setting [16]) is at most 0.12 µg/mL; in [9] it was 4 µg/mL (≈ 6.99 µM); in [10] it was 0.5 µg/mL (≈ 0.873 µM); in [12], at most 0.12 µg/mL; in [13], 0.5 µg/mL (≈ 0.873 µM); in assay [14] it was 1 µg/mL (≈ 1.75 µM). For the same compound, the ED50 in assay [5] came out at 0.79 mg/kg; in [11], 1.4 mg/kg.

For the compound `CC(C)(O/N=C(\C(=O)NC1C(=O)N2C(C(=O)O)=C(COC(=O)CCCN)C[S+]([O-])C12)c1csc(N)n1)C(=O)O` (stereo not shown) [41 854], the MIC was 2 µg/mL (≈ 3.41 µM) in [1]; 0.25 µg/mL (≈ 0.426 µM) in [2]; at most 0.12 µg/mL in [3]; at most 0.12 µg/mL in assay [4]; 0.5 µg/mL (≈ 0.852 µM) in assay [6]; 0.25 µg/mL (≈ 0.426 µM) in assay [7]. For the same compound, the MIC in assay [8] (setting [16]) was at most 0.12 µg/mL; in assay [9] it was 4 µg/mL (≈ 6.82 µM); in [10] it was 0.25 µg/mL (≈ 0.426 µM); in assay [12] it was at most 0.12 µg/mL; in assay [13] it was 0.25 µg/mL (≈ 0.426 µM); in [14] it was 0.5 µg/mL (≈ 0.852 µM). The ED50 in assay [5] stood at 0.19 mg/kg; in assay [11] it was 0.23 mg/kg.

Consider `CC(C)(O/N=C(\C(=O)NC1C(=O)N2C(C(=O)O)=C(COC(=O)CCCCCN)C[S+]([O-])C12)c1csc(N)n1)C(=O)O` (stereo not shown) [41 855], for which the MIC was 2 µg/mL (≈ 3.25 µM) in assay [1]; 0.25 µg/mL (≈ 0.407 µM) in [2]; at most 0.12 µg/mL in assay [3]; at most 0.12 µg/mL in assay [4]; 1 µg/mL (≈ 1.63 µM) in assay [6]; at most 0.12 µg/mL in assay [7]. Also, the minimal inhibitory concentration (MIC) in assay [8] (setting [16]) is at most 0.12 µg/mL; in assay [9] it was 8 µg/mL (≈ 13 µM); in [10] it was 0.25 µg/mL (≈ 0.407 µM); in [12], at most 0.12 µg/mL; in assay [13], 0.25 µg/mL (≈ 0.407 µM); in assay [15], at most 0.12 µg/mL. For the same compound, the MIC in assay [14] was 0.5 µg/mL (≈ 0.813 µM). The ED50 came out at 0.17 mg/kg in assay [5] and 0.16 mg/kg in assay [11].

As to `CC(C)(O/N=C(\C(=O)NC1C(=O)N2C(C(=O)O)=C(COC(=O)C3CCNCC3)C[S+]([O-])C12)c1csc(N)n1)C(=O)O` (stereo not drawn) [41 862, 7-[2-(2-Amino 4-thiazolyl)2-(2-carboxy 2-propyloxyimino)acetamido]3-(4-piperidinyl)carbonyl oxymethyl 3-cepheme 4-carboxylic1β-S-oxide acid trifluoroacetate syn isomer], the MIC is 1 µg/mL in assay [1]; 0.25 µg/mL in assay [2]; at most 0.12 µg/mL in assay [3]; at most 0.12 µg/mL in assay [4]; 0.25 µg/mL in assay [6]; at most 0.12 µg/mL in [7]. Also, the MIC was 0.12 µg/mL in [8] (Escherichia coli, 255/L.7); 4 µg/mL in assay [9]; at most 0.25 µg/mL in assay [10]; at most 0.12 µg/mL in assay [12]; 0.25 µg/mL in assay [13]; at most 0.12 µg/mL in assay [15]. This compound returned an MIC in assay [14] of 0.5 µg/mL. Further, the ED50 was determined as 0.1 mg/kg in assay [5] and 0.13 mg/kg in assay [11].
